Assay results taken from patent US20030114375A1, “Method for treating cystic fibrosis” (The Government of the USA, Dept of Health and Human …, priority 1994, published 2003).
Entries after “also recorded” stand apart in the source; their conditions may differ. Like-named read-outs stand apart in the source and are kept apart here.

What was measured:
Iα polypeptide = molecular target: T1, Iα polypeptide (Homo sapiens, UniProt P13569); assay: Phosphatidylserine liposome aggregation driven by Iα polypeptide; type: biochemical; conditions: 0.5 μg/ml (0.18 μM) Iα; 2-thio-CPX up to 1 μM, IBMX up to 15 μM
T1 construct: made in house; host or cells: chemical solid-phase synthesis (Yale University)
Experimental: Liposome aggregation assay: Phosphatidylserine (“PS”, obtained from Avanti) was dissolved in chloroform, and small unilamellar liposomes were prepared by the extrusion process known in the art. A Lipex machine was used to extrude the PS in a buffer consisting of 10 mM Na-HEPES, pH 7.2 and 1 mM EDTA. The liposomes were diluted to a final optical density at 540 nm of 0.01 and incubated with different concentrations of the different polypeptides and/or chloride ion efflux-activating compounds.

CFPAC cells [1] = assay: [36Cl]- efflux from CFPAC cells; conditions: for % control: chloride efflux at maximum impact relative to control: at Conc. max.; for % control: chloride efflux at minimum detection relative to control: at threshold concentration; for Efflux rate as compared to control (FIGS. 9-12): read from the graphs
A1-adenosine receptor = molecular target: T2, A1-adenosine receptor (Rattus norvegicus, UniProt P25099); assay: Inhibition of [3H]N6-phenylisopropyladenosine binding to A1 receptors
T2 construct: Rat cerebral cortical membranes and striatal membranes were prepared; from tissue; host or cells: rat cerebral cortex membranes
T2 sequence (P25099 1-326): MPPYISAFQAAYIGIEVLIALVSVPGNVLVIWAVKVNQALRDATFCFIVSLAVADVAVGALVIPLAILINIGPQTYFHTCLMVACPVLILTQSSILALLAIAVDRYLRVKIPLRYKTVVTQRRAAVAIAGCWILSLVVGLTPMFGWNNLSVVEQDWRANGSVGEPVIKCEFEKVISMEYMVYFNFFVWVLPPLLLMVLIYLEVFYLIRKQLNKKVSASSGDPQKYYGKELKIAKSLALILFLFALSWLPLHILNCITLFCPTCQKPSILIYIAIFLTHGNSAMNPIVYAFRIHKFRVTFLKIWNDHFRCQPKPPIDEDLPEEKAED
Experimental: (§1) Solid samples of the adenosine derivatives were dissolved in dimethyl sulfoxide (DMSO) and stored in the art at. −20° C. The stock solutions were diluted with DMSO to a concentration of ≦0.1 mM prior to addition to the aqueous medium. The final concentration of DMSO in the assay medium was generally 2%.
Inhibition of binding of 1 nM [^3H]N^6-phenylisopropyladenosine (Dupont NEN, Boston, Mass.) to A1 receptors in rat cerebral cortex membranes was measured as described in Schwabe et al., Naunyn-Schmiedeberg's Arch. […] Membranes (^˜100 μg protein per tube) were incubated for 1.5 hours at 37° C. in a total volume of 0.5 ml of 50 mM tris hydrochloride at pH 7.4. Test drugs were dissolved in DMSO and added in 10 μl aliquots, resulting in a final DMSO concentration of 2%. Bound and free radioligand were separated by addition of 3 ml of a buffer containing 50 mM tris hydrochloride, at pH 7.4 at 5° C., followed by vacuum filtration using a Brandel Cell Harvester (Brandel, Gaithersburg, Md.) and a Whatman GF/B glass fiber filter with additional washes totaling 9 ml of buffer. Non-specific binding was determined with 10 μM 2-chloroadenosine.
(§2) At least six different concentrations spanning three orders of magnitude, adjusted appropriately for the IC50 of each compound, were used.

CFPAC cells [2] = conditions: U.S. Pat. No. 5,366,977 / Eidelman et al.; cited from earlier work
A2a-adenosine receptor = molecular target: T3, A2a-adenosine receptor (Rattus norvegicus, UniProt P30543); assay: Inhibition of [3H]CGS 21680 binding to A2a receptors; conditions: for Ki: rat striatal membranes, 5 nM [3H]CGS 21680, read-out: Ki, μM(A2)
T3 construct: Rat cerebral cortical membranes and striatal membranes were prepared; from tissue; host or cells: rat striatal membranes
Experimental: as §1
Membranes (^˜80 μg protein per tube) were incubated for one hour at 25° C. in a total volume of 0.5 ml of a buffer solution consisting of […] tris hydrochloride and 10 mM MgCl2 at pH 7.4. Test drugs were dissolved in DMSO and added in 10 μl aliquots, resulting in a final DMSO concentration of 2%. Non-specific binding was defined using 20 μM 2-chloroadenosine. Filtration was carried out using a Brandel Cell Harvester, as above, using the tris.HCl/MgCl2 buffer recited hereinabove as the washing buffer.
as §2

[3] = system: bovine chromaffin granules; assay: Chromaffin granule aggregation assay; type: biochemical; conditions: for Aggregation of chromaffin granules: 1 mM CaCl2, 20 μg/ml polypeptide
Experimental: Chromaffin granule aggregation assay: Adrenal glands were obtained from a local abattoir and transported to the laboratory on ice within 2 hours of slaughter. Tissue was processed as described in Brocklehurst et al. in Polypeptide Hormones: A Practical Approach (Oxford Univ. Press, K. Siddle and J. Hutton, eds., 1990) at pp. 237-255. Chromaffin granules were purified on a step gradient of metrizamide using standard procedures. After resuspension, the granule aggregation assay was performed as described (Brocklehurst et al., supra), and the synexin activity was assessed from the initial rate of optical density increase at 540 nm. Briefly, the assay was carried out at room temperature in a 1 ml quartz cuvette containing the chromaffin granule suspension in 0.3 mol/l sucrose, 40 mmol/l histidine buffer, pH 6.0, synexin and variable amounts of calcium chloride.

[4] = rat cerebral cortex membranes, 1 nM [3H]PIA, read-out: Ki, μM(A1)

T3 sequence (P30543 whole entry): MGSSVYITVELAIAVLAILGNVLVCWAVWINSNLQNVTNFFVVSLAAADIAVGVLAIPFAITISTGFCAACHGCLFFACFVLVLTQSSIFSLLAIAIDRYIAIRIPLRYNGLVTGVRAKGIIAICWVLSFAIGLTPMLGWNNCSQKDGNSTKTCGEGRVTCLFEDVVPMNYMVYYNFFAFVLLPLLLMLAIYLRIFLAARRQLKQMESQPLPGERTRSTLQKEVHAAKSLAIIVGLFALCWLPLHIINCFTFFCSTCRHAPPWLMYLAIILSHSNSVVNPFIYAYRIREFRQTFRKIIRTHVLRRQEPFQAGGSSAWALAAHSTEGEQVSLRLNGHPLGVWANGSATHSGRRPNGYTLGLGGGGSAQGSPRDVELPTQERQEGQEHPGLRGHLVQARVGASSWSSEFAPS

Compound	Conc. max. (nM): concentration at maximum impact upon chloride efflux (CFPAC cells [1])	Ki (A1-adenosine receptor; [4]) [µM]	Ki (A2a-adenosine receptor) [µM]	other results
CCn1c(C2CCCCC2)nc2c1c(=O)n(C)c(=O)n2C (hydrate or solvate) [Compound 15]				melting point: > 170 °C
Cn1c(=O)c2c(nc(C3CCCCC3)n2CC2CC2)n(C)c1=O (hydrate or solvate) [Compound 16]				melting point: > 120 °C
Nc1ncnc2c1ncn2[C@@H]1O[C@H](CO)[C@@H](O)[C@H]1O [Adenosine, adenosine]				Effect on PS liposome aggregation driven by Iα (Iα polypeptide): modest but evident biphasic effect
Cn1c(=O)c2c(ncn2C)n(C)c1=O [Compound 2, 1,3,7-trimethylxanthine, reference compound]	10 nM			thresh (nM): minimum concentration required to detect an effect upon chloride efflux (CFPAC cells [1]): 1 nM
Cn1c(=O)c2[nH]c(C3CCCC3)nc2n(C)c1=O [Compound 4, 1,3-dimethyl-8-cyclopentylxanthine, reference compound]	>>10^4 nM	0.011		Affinity for A1 receptor (A1-adenosine receptor): highest A1 affinity; Activation of chloride efflux from CF cells (words, prior disclosure) (CFPAC cells [2]): ineffective
CCCn1c(=O)c2c(nc(C3CCCC3)n2C)n(CCC)c1=O [Compound 6, 1,3-dipropyl-7-methyl-8-cyclopentylxanthine]	1000 nM	2.3	11.4 ± 1.4	Affinity for A1 receptor (A1-adenosine receptor): low affinity; Affinity for A2 receptor (A2a-adenosine receptor): low affinity; Chloride efflux stimulation (summary words) (CFPAC cells [1]): stimulate chloride efflux at μM or lesser concentrations; also recorded: substantial efflux activity at low concentration ranges; thresh (nM): minimum concentration required to detect an effect upon chloride efflux (CFPAC cells [1]): 30 nM; % control: chloride efflux at maximum impact relative to control (CFPAC cells [1]): 180 ± 40%; % control: chloride efflux at minimum detection relative to control (CFPAC cells [1]): 125 ± 30%
CCCn1c(=O)c2[nH]c(C3CCC(F)C3)nc2n(CCC)c1=O (centres unmarked) [Compound 9]	>>300 nM	0.042		
CCCn1c(=O)c2[nH]c(C3CCC(I)C3)nc2n(CCC)c1=O (centres unmarked) [Compound 10]	>>300 nM	0.058		
CCCn1c(=O)c2[nH]c(C3C=CCC3)nc2n(CCC)c1=O (centres unmarked) [Compound 11]	>>300 nM	0.045	0.64 ± 0.061	
Cn1c(=O)c2c(nc(C3CCCCC3)n2C)n(C)c1=O [Compound 14, 8-cyclohexyl caffeine]				Chloride efflux stimulation (summary words) (CFPAC cells [1]): stimulate chloride efflux at μM or lesser concentrations; also recorded: substantial efflux activity at low concentration ranges; thresh (nM): minimum concentration required to detect an effect upon chloride efflux (CFPAC cells [1]): 3 nM
CCn1c(C2CCCCC2)nc2c1c(=O)n(C)c(=O)n2C [Compound 15]	>>10^4 nM	6.66 ± 0.99	3.23 ± 0.36	
Cn1c(=O)c2c(nc(C3CCCCC3)n2CC2CC2)n(C)c1=O [Compound 16]	>>10^4 nM	8.23 ± 1.62	4.53 ± 1.37	
C=CCn1c(=O)c2[nH]c(C3CCCCC3)nc2n(CC=C)c1=O [Compound 17]	10^3 nM		4.94 ± 0.68	Ki (A1-adenosine receptor; read-out: Ki for A1 receptors (unit inferred)): ~0.07 µM; thresh (nM): minimum concentration required to detect an effect upon chloride efflux (CFPAC cells [1]): 30 nM; Efflux rate as compared to control (FIGS. 9-12) (CFPAC cells [1]): > 100%
CCCn1c(=O)c2[nH]c(C3CCCCC3)nc2n(CCC)c1=O [Compound 18]	>>10^4 nM			
CCCn1c(=O)c2c(nc(C3CCCCC3)n2C)n(CCC)c1=O [Compound 19, 1,3-dipropyl-7-methyl-8-cyclohexylxanthine]	5 nM	2.7	9.24 ± 0.37	Chloride efflux stimulation (summary words) (CFPAC cells [1]): stimulate chloride efflux at μM or lesser concentrations; also recorded: substantial efflux activity at low concentration ranges; thresh (nM): minimum concentration required to detect an effect upon chloride efflux (CFPAC cells [1]): 5 nM; % control: chloride efflux at maximum impact relative to control (CFPAC cells [1]): 170 ± 50%; % control: chloride efflux at minimum detection relative to control (CFPAC cells [1]): 170 ± 50%
Cn1c(=O)c2[nH]c(CC3CCCCC3)nc2n(C)c1=O [Compound 21]	>>10^4 nM	0.61 ± 0.076	5.47 ± 0.86	melting point: 236 to 238 °C
Cn1c(=O)c2c(nc(CC3CCCCC3)n2C)n(C)c1=O [Compound 22, 8-cyclohexylmethyl caffeine]	>>10^4 nM	3.71 ± 0.36	5.46 ± 0.47	Efflux rate as compared to control (FIGS. 9-12) (CFPAC cells [1]): 200%
Cn1c(=O)c2[nH]c(C3CCCCCC3)nc2n(C)c1=O [Compound 23]	>>10^4 nM	0.0659 ± 0.0145	1.05 ± 0.19	melting point: 223 to 225 °C
Cn1c(=O)c2c(nc(C3CCCCCC3)n2C)n(C)c1=O [Compound 24]	>>10^4 nM	19.5 ± 2.5	3.27 ± 0.98	A2a affinity (fold) (A2a-adenosine receptor; A2a versus A1): 6 fold
Cn1c(=O)c2c(nc(C=Cc3cccc(Cl)c3)n2C)n(C)c1=O [Compound 25, reference compound]	30 nM			Chloride efflux stimulation (summary words) (CFPAC cells [1]): stimulate chloride efflux at μM or lesser concentrations; thresh (nM): minimum concentration required to detect an effect upon chloride efflux (CFPAC cells [1]): 30 nM
CCCn1c(=O)c2[nH]c(-c3ccc(OCC(=O)NCCN)cc3)nc2n(CCC)c1=O [Compound 26, reference compound]	>>10^4 nM			
CCn1cnc2c(NC3CCCC3)ncnc21 [Compound 27, 9-ethyl-6-cyclopenyladenine, reference compound]	>>10^4 nM	0.44	17	
CFTR polypeptide, amino acid positions 477 to 508, NH2-PSEGKIKHSGRISFCSQFSWIMPGTIKENEEF-COOH [Iα]				Aggregation of chromaffin granules [3]: drive aggregation; k1/2,app of chromaffin granule aggregation ([3]; 1 mM CaCl2, pH 6.0): 22.2 µg/mL; EC50 ([3]; 1 mM CaCl2, pH 6.0, read-out: k1/2,app of chromaffin granule aggregation): 6.3 µM
Io: CFTR polypeptide, positions 500 to 530, NH2-GTIKENEEFGVSYDEYRYRSVIKACQLEEDIS-COOH				Aggregation of chromaffin granules [3]: inactive
Iβ: CFTR polypeptide, positions 509 to 539, NH2-GVSYDEYRYRSVIKACQLEEDISKFAEKDNI-COOH				Aggregation of chromaffin granules [3]: essentially inactive
